Results on 22 molecules are retold here after patent publication US6869974B1, “Pharmaceutical compounds” (Nicox S.A., priority 1999, dated 2005).

Series [1] concerns Human endothelial cells of the umbilical vein. The experiment in a line: Test 2 (CIP): apoptosis (DNA fragmentation) induced by cumene hydroperoxide in endothelial cells. It is filed as cell-based. To be noted: for inhibition of apoptosis induced by CIP (in words, significance p<0.01): CIP 5 mM; for activity at 100 µM: Homo sapiens, Endothelial cell, 1 h, read-out: Apoptosis % with respect to the controls treated only with CIP. The protocol:
Test 2 (CIP): Protection parameter of endothelial cell against the oxidative stress induced by cumene hydroperoxide (CIP).
Human endothelial cells of the umbilical vein are prepared according to an usual standard procedure. Fresh umbilical veins are filled with a 0.1% by weight collagenase solution and incubated at 37° C. for 5 minutes.
The cells are collected from the perfusate by centrifugation and harvested in culture flasks T-75, pretreated with human fibronectin. The cells are then harvested in the same medium, further added with 10 ng/ml of bovine hypothalamic growth factor. When the cells of the primary cell culture (i.e. that directly obtained from ex-vivo) form a single layer of confluent cells (about 8,000,000 cells/flask), the culture is stopped and the layers washed and trypsinized. The cellular suspensions are transferred into the wells of a cell culture plate having 24 wells, half of which is then additioned with the same culture medium containing the drug at a 10^−4M concentration, and harvested in a thermostat at 37° C. at a constant moisture. Only the cells coming from said first sub-cultures are used for the experiments with cumene hydroperoxide (CIP).
Before starting the test, the cellular culture medium is removed and the cellular layers are carefully washed with a physiologic solution at a temperature of 37° C. The wells of the culture plate are then incubated for one hour with CIP at a 5 mM concentration in the culture medium. […] 5 replicates for each sample are carried out.
Human endothelial cells of the umbilical vein are prepared according to a standard method. Fresh umbilical veins are filled with a collagenase solution 0.1% by weight and incubated at 37° C. for 5 minutes.
The cells are collected from the perfusate by centrifugation at 800 rpm and harvested in culture flasks T-75, pretreated with human fibronectin. Cells are then harvested in the same medium, added with bovine hypothalamic growth factor (100 ng/ml). When the cells of the primary cell culture (the cells directly removed from ex-vivo umbilical vein) form a single layer of confluent cells (abdut 8,000,000 cells/flask), harvesting is stopped and the layers are washed and trypsinized. The cellular suspensions are transferred into wells of a culture plate having 24 wells, half of said wells being added with the same culture medium containing the drug at a 10^−4M concentration, and harvested in a thermostat at 37° C. at a constant moisture (90%), CO2=5%. When the drug is not soluble in the culture medium, it is formerly dissolved in a small amount of di-methylsulphoxide. The maximum amount of dimethylsulphoxide which can be added to the culture medium is 0.5%. Only the cells coming from these first subcultures are used for the tests with cumene hydroperoxide (CIP).
Before starting the test, the cellular culture medium is removed and the cellular layers are carefully washed with a standard physiologic solution buffered with phosphate 0.1 M pH 7.0, at the temperature of 37° C. The content of each well is then incubated for one hour with a CIP suspension in the culture medium at a 5 mM concentration. Evaluation of the cellular damage (apoptosis) is carried out by determining the percent variation of the DNA fragmentation in the cultures containing the drug+CIP with respect to the controls treated with CIP only. […] The fluorescence of each sample was determined on 5 replicates. Statistic evaluation has been made with t Student test (p<0.01).

Series [2] can be described thus: Test 4: inhibition of radical production from DPPH. To be noted: 100 μM (10^-4 M) in methanol, 30 minutes, absorbance 517 nm. As to the method:
Test 4 is a […] test which affords to establish whether the precursor of B or B1 (precursor of the X2 or X2a of the formulas (I) and (II) respectively), inhibits the production of radicals from DPPH (2,2-diphenyl-1-picryl-hydrazyl) (M. S. Nenseter et Al., Atheroscler. Thromb. 15, 1338-1344, 1995). 100 μM solutions in methanol of the tested substances are prepared, and an aliquot of each of said solutions is added to a DPPH solution in methanol […]. After having stored the solutions at room temperature away from light for 30 minutes, their absorbances are read at the wave length of 517 nm, together with that of the corresponding DPPH solution at the same concentration. The absorbance decrease with respect to that of the solution of DPPH at the same concentration of the test solutions is determined. The effectiveness of the tested compound in inhibiting formation of radicals by DPPH is expressed by the following formula: (1−AS/AC)X100 wherein AS and AC are respectively the absorbance values of the solution containing the test compound together with DPPH and of the solution containing only DPPH.
The B or B1 precursor satisfies test 4 if their effectiveness in inhibiting radical production as above defined, is equal to or higher than 50% at the indicated concentration (10^−4 M).
Test 4: inhibition of the radical production from DPPH of some substances to be used as precursors of B or B1 (ref. Formulas I and II of the invention)
The method is based on a colorimetric test in which DPPH (2,2-diphenyl-1-picryl-hydrazyl) is used as the compound-forming radicals (M. S. Nenseter et Al., Atheroscler. Thromb. 15, 1338-1344, 1995).
Solutions in methanol of the tested substances at a final concentration 100 μM are initially prepared. 0.1 ml of each of these solutions are added to aliquots of 1 ml of a methanol solution 0.1 M of DPPH and then the final volume is brought to 1.5 ml. After having stored the solutions at room temperature away from light for 30 minutes, the absorbance at the wave length of 517 nm is read. It is determined the absorbance decrease with respect to the absorbance of a solution containing the same concentration of DPPH.
The efficacy of the test compound to inhibit the production of radicals, or antiradical activity, is expressed by the following formula: (1−AS/AC)X100 wherein AS and AC are, respectively, the absorbance values of the solution containing the test compound together+DPPH and of the solution containing only DPPH.
The compound meets test 4 if radical production inhibition, as above defined, is equal to or higher than 50%.
On the technique in general: Loss of DPPH colour is used to gauge radical scavenging.

Series [3] deals with rats not treated or treated with NEM. Put plainly: in vivo. The settings on record: rats not treated with NEM; single dose; route given with each value (p.o., i.c., s.c.). As to the method: (§1) The animals (rats) are distributed in the following groups (no. 10 animals for group):
(§2) • 1° group: treatment: only carrier (aqueous suspension 1% w/v of carboxyymethylcellulose, dose: 5 ml/Kg when the drug is administered by os, or a physiologic solution when parenterally administered, i.e. by subcutaneous, intraperitoneal, ir-ravenous or intermuscular route), • 2° group: treatment: carrier as above defined+NEM, B) Groups treated with the drug: • group I: treatment: carrier+drug, • gruppo II: treatment: carrier+drug+NEM.
(§3) The administration routes are those known for the drug, and can be the oral or subcutaneous, intraperitoneal, intravenous or intramuscular route.
(§4) The animals are sacrificed after 24 hours and then one proceeds to the evaluation of the damage to the gastrointestinal mucosa.
(§5) Test 1—experimental model in vivo with N-ethylmaleimide (NEM): study of the gastric tolerability of some drugs screened as precursors of the compounds of the invention.
(§6) The animals (rats, weight about 200 g) are distributed in the following groups (No. 10 animals for group):
(§7) • 1° group: treatment: only carrier (aqueous suspension 1% w/v of carboxymethylcellulose, dose: 5 ml/Kg when the drug is administered by os, physiologic solution when by parenteral route), • 20 group: treatment: carrier+NEM, B) Groups administered with each drug: • group I: treatment: carrier+drug, • group II: treatment: carrier+drug+NEM.
(§8) The drug is administered one hour later, in suspension in the carrier. Animals are sacrificed after 24 hours and evaluation of the damage to the gastrointestinal mucosa is made by counting the number of rats, inside each group, with lesions to the stomach at a visual inspection. The total number of said rats is then divided by the total number of rats of the group and multiplied by 100.

The nature of another series: in vivo. The settings on record: rat, in vivo. The protocol:
as §1, §2, §3, §4, §5, §6, §7, §8

Setting [4] is: Table II, drug 10^-4 M, CIP 5 mM for one hour, DNA fragmentation.

“Also recorded” adds a separate entry of the source.

Consider clopidogrel, for which, in series [1] (setting [4]), the “Apoptosis % with respect to the controls treated only with CIP” value (shortened to “Apoptosis %”) came out at 110%. Besides, the “inhibition of apoptosis induced by CIP (in words, significance p<0.01)” value (shortened to “inhibition … (in words, significance p<0.01)”) in series [1] (drug 10^-4 M) was “do not significantly inhibit apoptosis”.
Consider `CC(C)(C)NCC(O)c1ccc(O)c(CO)c1` (stereo not shown) [Salbutamol, salbutamol], for which the activity at 100 µM in series [1] (setting [4]) stood at 90%. Besides, the “inhibition … (in words, significance p<0.01)” value in series [1] (drug 10^-4 M) was “do not significantly inhibit apoptosis”.
Take aciclovir: the “Apoptosis %” value in series [1] (setting [4]) is listed as 95%. The “inhibition … (in words, significance p<0.01)” value in series [1] (drug 10^-4 M) was “do not significantly inhibit apoptosis”.
As for cetirizine, in series [1] (setting [4]), the “Apoptosis %” value is given as 115%. The “inhibition … (in words, significance p<0.01)” value in series [1] (drug 10^-4 M) was “do not significantly inhibit apoptosis”.
For the molecule `CC(=O)Nc1ccc(O)cc1` [Paracetamol, paracetamol], in series [1] (setting [4]), the activity at 100 µM came out at 120%. The “inhibition … (in words, significance p<0.01)” value in series [1] (drug 10^-4 M) is listed as “do not significantly inhibit apoptosis; also recorded: not significantly different with respect to that of the controls”.
Consider `CC(C)(S)[C@@H](N)C(=O)O` [Penicillamine, penicillamine], for which the “% inhibition radicals from DPPH” value in series [2] came out at 100%.
Regarding `N[C@@H](CS)C(=O)O` [Cisteine, cisteine], in series [2] (100 µM), the “% inhibition radicals from DPPH” value came out at 100%.
Turning to `Cn1c(=O)c2c(ncn2CC(O)CO)n(C)c1=O` (stereo not shown) [Diphylline, diphylline], the activity at 100 µM in series [1] (setting [4]) worked out at 95%. The “inhibition … (in words, significance p<0.01)” value in series [1] (drug 10^-4 M) is “do not significantly inhibit apoptosis”.
Consider enalapril, for which the “inhibition … (in words, significance p<0.01)” value in series [1] (drug 10^-4 M) is on record as “do not significantly inhibit apoptosis”.
With `CC(=O)N[C@H](CS)C(=O)O` [N-acetylcisteine], in series [2] (listed as N-acetylcysteine, 100 µM), the “% inhibition radicals from DPPH” value is listed as 100%.
For the molecule `NCCCC(O)(P(=O)(O)O)P(=O)(O)O` [Alendronate, sodic alendronate], the activity at 100 µM in series [1] (setting [4]) was 160%. In series [1] (drug 10^-4 M), the “inhibition … (in words, significance p<0.01)” value is “do not significantly inhibit apoptosis”.
As to `NC(=O)c1cccnc1` [Nicotinamide, nicotinamide], in series [1] (setting [4]), the activity at 100 µM stood at 98%. Further, the “inhibition … (in words, significance p<0.01)” value in series [1] (drug 10^-4 M) is listed as “do not significantly inhibit apoptosis”.
`CC1(C)S[C@@H]2[C@H](NC(=O)[C@H](N)c3ccccc3)C(=O)N2[C@H]1C(=O)O` [Ampicilline, ampicilline]: the “inhibition … (in words, significance p<0.01)” value in series [1] (drug 10^-4 M) was “do not significantly inhibit apoptosis”.
With `Nc1c2c(nc3ccccc13)CCCC2` [Tacrine, tacrine], the “maximum tolerated dose (dose (mg/Kg)/admin. route)” value (from here on “maximum tolerated dose”) in series [3] is reported as 1/s.c. mg/Kg. Moreover, the activity at 100 µM in series [1] (setting [4]) came out at 90%. Besides, the “inhibition … (in words, significance p<0.01)” value in series [1] (drug 10^-4 M) was “do not significantly inhibit apoptosis”.
Consider `COc1cc(/C=C/C(=O)O)ccc1O` [Ferulic acid, ferulic acid], for which the “% inhibition radicals from DPPH” value in series [2] (100 µM) was found to be 100%.
For `O=C(O)c1cc(O)ccc1O` [Gentisic acid, gentisic acid], the “% inhibition radicals from DPPH” value in series [2] (100 µM) was determined as 80%.
For `CCC(C)(C)C(=O)O[C@H]1C[C@@H](C)C=C2C=C[C@H](C)C(CCC3CC(O)CC(=O)O3)[C@H]21` (stereo partly shown) [Simvastatine, simvastatine], the activity at 100 µM in series [1] (setting [4]) was determined as 72%.
Consider `COc1ccc2[nH]c([S+]([O-])Cc3ncc(C)c(OC)c3C)nc2c1` (stereo not shown) [Omeprazol, omeprazol], for which the “maximum tolerated dose” value in series [3] is given as 30/s.c. mg/Kg. Moreover, the activity at 100 µM in series [1] (setting [4]) was 90%. In addition, the “inhibition … (in words, significance p<0.01)” value in series [1] (drug 10^-4 M) is “do not significantly inhibit apoptosis”.
Turning to `CCCCC(C)(O)C/C=C/[C@H]1[C@H](O)CC(=O)[C@@H]1CCCCCCC(=O)OC` (mixture of isomers) [Misoprostol, misoprostol], the MTD at 24 h in the series “in vivo” turned out to be 0.5 mg/kg.
In “in vivo”, `Nc1ccc(O)c(C(=O)O)c1` [Mesalamine, mesalamine] had an MTD at 24 h of 750 mg/kg. Also, the activity at 100 µM in series [1] (setting [4]) stood at 74%. For the same molecule, in series [1] (drug 10^-4 M), the “inhibition … (in words, significance p<0.01)” value is reported as “inhibit apoptosis; also recorded: inhibits the apoptosis induced by CIP”.
As to `COc1ccc2c(c1)c(CC(=O)O)c(C)n2C(=O)c1ccc(Cl)cc1` [Indomethacin, indomethacin], in series [3], the “maximum tolerated dose” value is 7.5 mg/kg. Moreover, the activity at 100 µM in series [1] (setting [4]) was determined as 95%. Moreover, the “Apoptosis %” value in series [1] (Table III, second apoptosis experiment (Example F6), CIP-induced DNA fragmentation) was found to be 95%. Moreover, the “inhibition … (in words, significance p<0.01)” value in series [1] (drug 10^-4 M) is “not significantly different with respect to that of the controls”; in series [1] (drug 10^-4 M, listed as indomethacin), “do not significantly inhibit apoptosis”.
On to `Nc1c(Br)cc(Br)cc1CN[C@H]1CC[C@H](O)CC1` [Ambroxol, ambroxol], for which, in series [1] (drug 10^-4 M), the “inhibition … (in words, significance p<0.01)” value is reported as “inhibit apoptosis”.
